Reference: PubChem BioAssay (NCI)
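Protocol summary: plate cells (96-well), add compound at 5 concentrations, incubate 48 h, interpolate endpoints linearly. Abbreviation: GI50, concentration required for 50% inhibition of growth. The concentration for full growth arrest is given as TGI.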

Tests used:
Experiment in all cases: inhibition of tumour cell growth, NCI panel, 48 h
786-0 renal = test system: 786-0 renal
A549 NSCLC = test system: A549 NSCLC
ACHN renal = test system: ACHN renal
CAKI-1 renal = test system: CAKI-1 renal
CCRF-CEM leukemia = test system: CCRF-CEM leukemia
COLO 205 colon = test system: COLO 205 colon
DU-145 prostate = test system: DU-145 prostate
EKVX NSCLC = test system: EKVX NSCLC
HCC-2998 colon = test system: HCC-2998 colon
HCT-116 colon = test system: HCT-116 colon
HCT-15 colon = test system: HCT-15 colon
HL-60(TB) leukemia = test system: HL-60(TB) leukemia
HOP-62 NSCLC = test system: HOP-62 NSCLC
HS 578T breast = test system: HS 578T breast
HT29 colon = test system: HT29 colon
IGROV1 ovarian = test system: IGROV1 ovarian
K-562 leukemia = test system: K-562 leukemia
KM12 colon = test system: KM12 colon
M14 melanoma = test system: M14 melanoma
MALME-3M melanoma = test system: MALME-3M melanoma
MCF7 breast = test system: MCF7 breast
MDA-MB-231 breast = test system: MDA-MB-231 breast
MDA-MB-435 = test system: MDA-MB-435
MDA-N = test system: MDA-N
MOLT-4 leukemia = test system: MOLT-4 leukemia
NCI-H226 lung = test system: NCI-H226 lung
NCI-H23 lung = test system: NCI-H23 lung
NCI-H460 lung = test system: NCI-H460 lung
NCI-H522 lung = test system: NCI-H522 lung
NCI/ADR-RES ovarian = test system: NCI/ADR-RES ovarian
OVCAR-3 ovarian = test system: OVCAR-3 ovarian
OVCAR-4 ovarian = test system: OVCAR-4 ovarian
OVCAR-5 ovarian = test system: OVCAR-5 ovarian
PC-3 prostate = test system: PC-3 prostate
RPMI-8226 leukemia = test system: RPMI-8226 leukemia
RXF 393 renal = test system: RXF 393 renal
SF-268 CNS = test system: SF-268 CNS
SF-295 CNS = test system: SF-295 CNS
SF-539 CNS = test system: SF-539 CNS
SK-MEL-2 melanoma = test system: SK-MEL-2 melanoma
SK-MEL-28 melanoma = test system: SK-MEL-28 melanoma
SK-MEL-5 melanoma = test system: SK-MEL-5 melanoma
SK-OV-3 ovarian = test system: SK-OV-3 ovarian
SN12C renal = test system: SN12C renal
SNB-19 CNS = test system: SNB-19 CNS
SNB-75 CNS = test system: SNB-75 CNS
SR leukemia = test system: SR leukemia
SW-620 colon = test system: SW-620 colon
T-47D breast = test system: T-47D breast
TK-10 renal = test system: TK-10 renal
U251 CNS = test system: U251 CNS
UACC-62 melanoma = test system: UACC-62 melanoma
UO-31 renal = test system: UO-31 renal
HOP-92 NSCLC = test system: HOP-92 NSCLC
LOX IMVI melanoma = test system: LOX IMVI melanoma
OVCAR-8 ovarian = test system: OVCAR-8 ovarian
A498 renal = test system: A498 renal
BT-549 breast = test system: BT-549 breast
UACC-257 melanoma = test system: UACC-257 melanoma

## COc1cc([N+](=O)[O-])c(S(=O)(=O)O)cc1-[n+]1nc(C(=O)Nc2ccccc2)nn1-c1ccc([N+](=O)[O-])c(S(=O)(=O)[O-])c1
786-0 renal
  TGI: > 100 µM
A549 NSCLC
  TGI: > 100 µM
ACHN renal
  TGI: > 100 µM
CAKI-1 renal
  TGI: > 100 µM
CCRF-CEM leukemia
  TGI: > 100 µM
COLO 205 colon
  TGI: > 100 µM
DU-145 prostate
  TGI: > 100 µM
EKVX NSCLC
  TGI: > 100 µM
HCC-2998 colon
  TGI: > 100 µM
HCT-116 colon
  TGI: > 100 µM
HCT-15 colon
  TGI: > 100 µM
HL-60(TB) leukemia
  TGI: > 100 µM
HOP-62 NSCLC
  TGI: > 100 µM
HS 578T breast
  TGI: > 100 µM
HT29 colon
  TGI: > 100 µM
IGROV1 ovarian
  TGI: > 100 µM
K-562 leukemia
  TGI: > 100 µM
KM12 colon
  TGI: > 100 µM
M14 melanoma
  TGI: > 100 µM
MALME-3M melanoma
  TGI: > 100 µM
MCF7 breast
  TGI: > 100 µM
MDA-MB-231 breast
  TGI: > 100 µM
MDA-MB-435
  TGI: > 100 µM
MDA-N
  TGI: > 100 µM
MOLT-4 leukemia
  TGI: > 100 µM
NCI-H226 lung
  TGI: > 100 µM
NCI-H23 lung
  TGI: > 100 µM
NCI-H460 lung
  TGI: > 100 µM
NCI-H522 lung
  TGI: > 100 µM
NCI/ADR-RES ovarian
  TGI: > 100 µM
OVCAR-3 ovarian
  TGI: > 100 µM
OVCAR-4 ovarian
  TGI: > 100 µM
OVCAR-5 ovarian
  TGI: > 100 µM
PC-3 prostate
  TGI: > 100 µM
RPMI-8226 leukemia
  TGI: > 100 µM
RXF 393 renal
  TGI: > 100 µM
SF-268 CNS
  TGI: > 100 µM
SF-295 CNS
  TGI: > 100 µM
SF-539 CNS
  TGI: > 100 µM
SK-MEL-2 melanoma
  TGI: > 100 µM
SK-MEL-28 melanoma
  TGI: > 100 µM
SK-MEL-5 melanoma
  TGI: > 100 µM
SK-OV-3 ovarian
  TGI: > 100 µM
SN12C renal
  TGI: > 100 µM
SNB-19 CNS
  TGI: > 100 µM
SNB-75 CNS
  TGI: > 100 µM
SR leukemia
  TGI: > 100 µM
SW-620 colon
  TGI: > 100 µM
T-47D breast
  TGI: > 100 µM
TK-10 renal
  TGI: > 100 µM
U251 CNS
  TGI: > 100 µM
UACC-62 melanoma
  TGI: > 100 µM
UO-31 renal
  TGI: > 100 µM

## CCN(CCCl)c1cc(CN(C)C)cc(NC(=O)c2ccc(C(=O)Nc3cccc(N(CCCl)NN)c3)cc2)c1
A549 NSCLC
  TGI: 2.52 µM
ACHN renal
  TGI: 0.233 µM
CAKI-1 renal
  TGI: 0.203 µM
CCRF-CEM leukemia
  TGI: 0.115 µM
COLO 205 colon
  TGI: 0.199 µM
DU-145 prostate
  TGI: 8.66 µM
HCC-2998 colon
  TGI: 0.298 µM
HCT-116 colon
  TGI: 10.1 µM
HCT-15 colon
  TGI: 4.89 µM
HL-60(TB) leukemia
  TGI: 13.1 µM
HOP-62 NSCLC
  TGI: 10.7 µM
HOP-92 NSCLC
  TGI: 0.707 µM
HS 578T breast
  TGI: 0.0711 µM
HT29 colon
  TGI: 0.0409 µM
IGROV1 ovarian
  TGI: 0.078 µM
K-562 leukemia
  TGI: 0.199 µM
KM12 colon
  TGI: 0.329 µM
LOX IMVI melanoma
  TGI: 0.034 µM
M14 melanoma
  TGI: 0.294 µM
MALME-3M melanoma
  TGI: 0.0939 µM
MCF7 breast
  TGI: 0.171 µM
MDA-MB-231 breast
  TGI: 0.69 µM
MDA-MB-435
  TGI: 0.0389 µM
MDA-N
  TGI: 0.169 µM
MOLT-4 leukemia
  TGI: 0.0285 µM
NCI-H23 lung
  TGI: 0.626 µM
NCI/ADR-RES ovarian
  TGI: 12.7 µM
OVCAR-4 ovarian
  TGI: 0.364 µM
OVCAR-5 ovarian
  TGI: 0.989 µM
OVCAR-8 ovarian
  TGI: 0.942 µM
PC-3 prostate
  TGI: 0.0661 µM
RPMI-8226 leukemia
  TGI: 31.8 µM
RXF 393 renal
  TGI: 0.142 µM
SF-268 CNS
  TGI: 20.5 µM
SF-295 CNS
  TGI: 12.5 µM
SF-539 CNS
  TGI: 0.56 µM
SK-MEL-2 melanoma
  TGI: 0.181 µM
SK-MEL-28 melanoma
  TGI: 0.505 µM
SK-MEL-5 melanoma
  TGI: 0.174 µM
SK-OV-3 ovarian
  TGI: 13.3 µM
SN12C renal
  TGI: 1.16 µM
SNB-75 CNS
  TGI: 0.775 µM
SR leukemia
  TGI: > 100 µM
TK-10 renal
  TGI: 0.618 µM
UACC-62 melanoma
  TGI: 0.324 µM
UO-31 renal
  TGI: 1.54 µM

## COc1cc(C(=O)/C=C/c2c(C)n([O-])c3ccc(Cl)cc3[n+]2=O)cc(OC)c1OC
786-0 renal
  GI50: 13.2 µM
  TGI: 92.4 µM
A498 renal
  GI50: 0.208 µM
  TGI: 41 µM
A549 NSCLC
  GI50: 25.4 µM
  TGI: > 100 µM
ACHN renal
  GI50: 4.37 µM
  TGI: 18 µM
BT-549 breast
  GI50: 11 µM
  TGI: > 100 µM
CAKI-1 renal
  GI50: 10.3 µM
  TGI: > 100 µM
CCRF-CEM leukemia
  GI50: 2.14 µM
  TGI: 18.3 µM
COLO 205 colon
  GI50: 1.53 µM
  TGI: 4.54 µM
DU-145 prostate
  GI50: 4.2 µM
  TGI: > 100 µM
EKVX NSCLC
  GI50: 8.46 µM
  TGI: > 100 µM
HCC-2998 colon
  GI50: 12.8 µM
  TGI: 38.7 µM
HCT-116 colon
  GI50: 2.75 µM
  TGI: 12.2 µM
HCT-15 colon
  GI50: 4.26 µM
  TGI: 30.9 µM
HL-60(TB) leukemia
  GI50: 5.76 µM
  TGI: 23.5 µM
HOP-62 NSCLC
  GI50: 21.6 µM
  TGI: 71 µM
HOP-92 NSCLC
  GI50: 4.47 µM
  TGI: > 100 µM
HS 578T breast
  GI50: 1.75 µM
  TGI: 8.97 µM
HT29 colon
  GI50: 3.94 µM
  TGI: > 100 µM
IGROV1 ovarian
  GI50: 9.07 µM
  TGI: > 100 µM
K-562 leukemia
  GI50: 3.09 µM
  TGI: > 100 µM
KM12 colon
  GI50: 23.2 µM
  TGI: > 100 µM
LOX IMVI melanoma
  GI50: 5.78 µM
  TGI: > 100 µM
M14 melanoma
  GI50: 4.59 µM
  TGI: > 100 µM
MALME-3M melanoma
  GI50: 36.3 µM
  TGI: > 100 µM
MCF7 breast
  GI50: 3.37 µM
  TGI: > 100 µM
MDA-MB-231 breast
  GI50: 12.9 µM
  TGI: > 100 µM
MDA-MB-435
  GI50: 3.4 µM
  TGI: > 100 µM
MOLT-4 leukemia
  GI50: 3.06 µM
  TGI: 27.9 µM
NCI-H226 lung
  GI50: 32.6 µM
  TGI: > 100 µM
NCI-H23 lung
  GI50: 7.59 µM
  TGI: 68.6 µM
NCI-H460 lung
  GI50: 12.5 µM
  TGI: 36.6 µM
NCI-H522 lung
  GI50: 1.12 µM
  TGI: 2.8 µM
NCI/ADR-RES ovarian
  GI50: 4.89 µM
  TGI: 35.8 µM
OVCAR-3 ovarian
  GI50: 1.76 µM
  TGI: 7.98 µM
OVCAR-4 ovarian
  GI50: 9.29 µM
  TGI: > 100 µM
OVCAR-5 ovarian
  GI50: 27 µM
  TGI: > 100 µM
OVCAR-8 ovarian
  GI50: 3.18 µM
  TGI: > 100 µM
PC-3 prostate
  GI50: 26.9 µM
  TGI: > 100 µM
RPMI-8226 leukemia
  GI50: 3.18 µM
  TGI: 33.4 µM
RXF 393 renal
  GI50: 3.37 µM
  TGI: 91 µM
SF-268 CNS
  GI50: 3.53 µM
  TGI: 98.7 µM
SF-295 CNS
  GI50: 99.4 µM
  TGI: > 100 µM
SF-539 CNS
  GI50: 11.2 µM
  TGI: 27.4 µM
SK-MEL-2 melanoma
  GI50: 17 µM
  TGI: 81.3 µM
SK-MEL-28 melanoma
  GI50: 10.8 µM
  TGI: 52.9 µM
SK-MEL-5 melanoma
  GI50: 12.1 µM
  TGI: > 100 µM
SK-OV-3 ovarian
  GI50: 24.9 µM
  TGI: > 100 µM
SN12C renal
  GI50: 10.4 µM
  TGI: > 100 µM
SNB-19 CNS
  GI50: 30.2 µM
  TGI: > 100 µM
SNB-75 CNS
  GI50: 5.18 µM
  TGI: > 100 µM
SR leukemia
  GI50: 1.86 µM
  TGI: 5.65 µM
SW-620 colon
  GI50: 2.57 µM
  TGI: 11.7 µM
T-47D breast
  GI50: 3.18 µM
  TGI: 27.9 µM
TK-10 renal
  GI50: 7.83 µM
  TGI: > 100 µM
U251 CNS
  GI50: 4.52 µM
  TGI: 72.3 µM
UACC-257 melanoma
  GI50: 19.5 µM
  TGI: > 100 µM
UACC-62 melanoma
  GI50: 3.87 µM
  TGI: 23.1 µM
UO-31 renal
  GI50: 1.82 µM
  TGI: 18.1 µM
